Data on 53 compounds can be found in patent publication US10640495B2, “Heterocycle derivatives having TrkA inhibitory activity” (Shionogi & Co., Ltd., priority 2015, dated 2020).

Sequence of human TrkA (P04629 440-796): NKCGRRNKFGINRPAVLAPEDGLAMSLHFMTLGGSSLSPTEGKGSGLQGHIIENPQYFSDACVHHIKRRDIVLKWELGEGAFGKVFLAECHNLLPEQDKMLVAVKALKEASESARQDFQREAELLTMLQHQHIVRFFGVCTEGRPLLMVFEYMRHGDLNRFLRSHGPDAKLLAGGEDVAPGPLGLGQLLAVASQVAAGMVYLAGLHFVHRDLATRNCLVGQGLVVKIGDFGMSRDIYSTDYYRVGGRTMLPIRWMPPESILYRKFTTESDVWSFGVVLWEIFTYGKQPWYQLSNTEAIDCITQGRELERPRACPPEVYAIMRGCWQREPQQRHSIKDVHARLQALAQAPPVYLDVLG

One test concerns the target human TrkA (Homo sapiens (Human), UniProt P04629). Briefly: Human TrkA inhibition assay (Test Example 2). The class given is biochemical. The settings on record: Table 155, human TrkA inhibition; read-out: IC50. The procedure, abridged:
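Mobility-shift readout of phosphorylated versus unphosphorylated fluorescent peptide gave conversion ratio, normalized to DMSO and no-enzyme wells; IC50 by logistic fit of 10- or 15-point 3-fold dilutions. Conditions: 1 nmol/L enzyme, 15 min compound preincubation, then 500 μmol/L ATP plus 1.5 μmol/L peptide, 120 min, 37 °C.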
Consider `COCCN1C[C@@H](NC(=O)Nc2c(C)c(-c3cnn(C)c3)nn2CCO)[C@H](c2ccc(F)c(F)c2)O1` [Compound I-493], for which the IC50 was more than 1000 nM. In the case of `COCCN1C[C@@H](NC(=O)Nc2c(C)c(-c3cnn(C)c3)nn2CCN(C)C)[C@H](c2ccc(F)c(F)c2)O1` [Compound I-494], the IC50 is more than 1000 nM.

As for `COCCN1C[C@@H](NC(=O)Nc2c(C)c(-c3ccn(C)c(=O)c3)nn2-c2ccccc2)[C@H](c2ccc(F)c(F)c2)O1` [Compound I-497], the IC50 is less than 100 nM. As to `COCCN1C[C@@H](NC(=O)Nc2c(C)c(-c3ccc(=O)n(C)c3)nn2-c2ccccc2)[C@H](c2ccc(F)c(F)c2)O1` [Compound I-498], the IC50 is less than 100 nM. For the compound `COCCN1C[C@@H](NC(=O)Nc2c(C)c(OCC3CN(C(=O)OC(C)(C)C)CCO3)nn2-c2ccccc2)[C@H](c2ccnc(F)c2)O1` (some centres unmarked) [Compound I-499], the IC50 is less than 100 nM. As for `COCCN1C[C@@H](NC(=O)Nc2c(C)c(OCC3CNCCO3)nn2-c2ccccc2)[C@H](c2ccnc(F)c2)O1` (some centres unmarked) [Compound I-500], the IC50 is less than 100 nM.

Take `COCCN1C[C@@H](NC(=O)Nc2c(C)c(OCC3CN(C(C)=O)CCO3)nn2-c2ccccc2)[C@H](c2ccnc(F)c2)O1` (some centres unmarked) [Compound I-504]: the IC50 is less than 100 nM. Turning to `COCCN1C[C@@H](NC(=O)Nc2c(C)c(OCC3CN(C)CCO3)nn2-c2ccccc2)[C@H](c2ccnc(F)c2)O1` (some centres unmarked) [Compound I-505], the IC50 is less than 100 nM.

Take `COCCN1C[C@@H](NC(=O)Nc2c(C)c(-c3cnn(C)c3)nn2-c2cccc(F)c2)[C@H](c2ccc(F)c(F)c2)O1` [Compound I-510]: the half-inhibitory concentration (IC50) is less than 100 nM. As to `COCCN1C[C@@H](NC(=O)Nc2c(C)c(-c3cnc(COC)nc3)nn2-c2ccccc2)[C@H](c2cnc(F)c(F)c2)O1` [Compound I-512], the half-maximal inhibitory concentration (IC50) is less than 100 nM.

Still in this test, the particulars now being: Table 156, human TrkA inhibition; read-out: IC50.
For the compound `COCCN1C[C@@H](NC(=O)Nc2c(C)c(-c3cnc(N4CC5CC(C4)O5)nc3)nn2-c2ccccc2)[C@H](c2cnc(F)c(F)c2)O1` [Compound I-514], the IC50 was less than 100 nM. `COCCN1C[C@@H](NC(=O)Nc2c(C)c(-c3ccc(OC)nc3)nn2-c2ccccc2)[C@H](c2ccc(F)c(F)c2)O1` [Compound I-516]: the 50% inhibitory concentration (IC50) is less than 100 nM. Consider `COCCN1C[C@@H](NC(=O)Nc2c(C)c(C)nn2-c2ccccc2)[C@H](c2ccc(F)c(F)c2)O1` [Compound I-518], for which the half-maximal inhibitory concentration (IC50) was less than 100 nM. As to `CCOc1nn(-c2ccccc2)c(NC(=O)N[C@@H]2CN(CCOC)O[C@H]2c2ccc(F)c(F)c2)c1C` [Compound I-519], the IC50 was less than 100 nM. Same read-out and setting: the figure for `COCCN1C[C@@H](NC(=O)Nc2c(C)c(C)nn2-c2ccccc2)[C@H](c2cnc(F)c(F)c2)O1` [Compound I-520] is less than 100 nM. For the compound `COCCN1C[C@@H](NC(=O)Nc2c(C)c(C)nn2-c2ccccc2)[C@H](c2ccnc(F)c2)O1` [Compound I-521], the IC50 is less than 100 nM.

As for `COCCN1C[C@@H](NC(=O)Nc2c(C)c(-c3ccc(COC(C)=O)nc3)nn2-c2ccccc2)[C@H](c2ccc(F)c(F)c2)O1` [Compound I-531], the IC50 was less than 100 nM. In the case of `COCCN1C[C@@H](NC(=O)Nc2c(C)c(-c3ccc(CO)nc3)nn2-c2ccccc2)[C@H](c2ccc(F)c(F)c2)O1` [Compound I-533], the half-maximal inhibitory concentration (IC50) was less than 100 nM. For `CCN1C[C@H](NC(=O)Nc2c(C)c(OCC3CCN(C)CC3)nn2-c2ccccc2)[C@@H](c2ccc(F)c(F)c2)O1` [Compound I-535], the IC50 was more than 1000 nM.

In the case of `CCN1C[C@@H](NC(=O)Nc2c(C)c(OCC3CNCCO3)nn2-c2ccccc2)[C@H](c2ccc(F)c(F)c2)O1` (some centres unmarked) [Compound I-537], the IC50 was less than 100 nM. Consider `CCN1C[C@@H](NC(=O)Nc2c(C)c(OCC3CN(C(C)=O)CCO3)nn2-c2ccccc2)[C@H](c2ccc(F)c(F)c2)O1` (some centres unmarked) [Compound I-546], for which the IC50 was less than 100 nM. As to `CCN1C[C@@H](NC(=O)Nc2c(C)c(OCC3CN(C)CCO3)nn2-c2ccccc2)[C@H](c2ccc(F)c(F)c2)O1` (some centres unmarked) [Compound I-548], the IC50 is less than 100 nM. Regarding `COCC[C@@H]1C[C@@H](NC(=O)Nc2c(C)c(-c3cnc(N4CC(OC)C4)nc3)nn2-c2ccccc2)[C@H](c2ccnc(F)c2)O1` [Compound I-553], the IC50 was less than 100 nM. On to `COCCN1C[C@@H](NC(=O)Nc2c(C)c(-c3ccc(C)nc3)nn2-c2ccccc2)[C@H](c2ccc(F)c(F)c2)O1` [Compound I-556], for which the IC50 is less than 100 nM. `COCCN1C[C@@H](NC(=O)Nc2c(C)c(-c3ccnc(C(=O)OC)c3)nn2-c2ccccc2)[C@H](c2ccc(F)c(F)c2)O1` [Compound I-557]: the IC50 was less than 100 nM. As for `COCCN1C[C@@H](NC(=O)Nc2c(C)c(-c3ccc(N4CC(OC)C4)nc3)nn2-c2ccccc2)[C@H](c2ccc(F)c(F)c2)O1` [Compound I-558], the concentration for half-maximal inhibition (IC50) is less than 100 nM.

As for `COCCN1C[C@@H](NC(=O)Nc2c(C)c(OCCN(C)C)nn2-c2ccccc2)[C@H](c2ccc(F)c(F)c2)O1` [Compound I-572], the IC50 was less than 100 nM. Turning to `COCCN1C[C@@H](NC(=O)Nc2c(C)c(OC3CN(C(=O)OC(C)(C)C)C3)nn2-c2ccccc2)[C@H](c2ccc(F)c(F)c2)O1` [Compound I-573], the 50% inhibitory concentration (IC50) is less than 100 nM.

As for `COCCN1C[C@@H](NC(=O)Nc2c(C)c(OC3CNC3)nn2-c2ccccc2)[C@H](c2ccc(F)c(F)c2)O1` [Compound I-574], the concentration for half-maximal inhibition (IC50) is less than 100 nM. Regarding `COCCN1C[C@@H](NC(=O)Nc2c(C)c(OCC3CN(C)CCO3)nn2-c2ccccc2)[C@H](c2ccc(F)c(F)c2)O1` (some centres unmarked) [Compound I-580], the half-maximal inhibitory concentration (IC50) is less than 100 nM.

The same test, now with this note: Table 157, human TrkA inhibition; read-out: IC50.
With `COCCN1C[C@@H](NC(=O)Nc2c(C)c(-c3cnc(N4CC[C@H](OC)C4)nc3)nn2-c2ccccc2)[C@H](c2ccnc(F)c2)O1` [Compound I-584], the IC50 is less than 100 nM. On to `COCCN1C[C@@H](NC(=O)Nc2c(C)c(-c3cnc(N4CC[C@@H](OC)C4)nc3)nn2-c2ccccc2)[C@H](c2ccnc(F)c2)O1` [Compound I-585], for which the half-inhibitory concentration (IC50) was less than 100 nM.

Consider `COCCN1C[C@@H](NC(=O)Nc2c(C)c(-c3cnc(N4CC[C@H](N(C)C)C4)nc3)nn2-c2ccccc2)[C@H](c2ccnc(F)c2)O1` [Compound I-586], for which the half-maximal inhibitory concentration (IC50) was less than 100 nM. In the case of `COCCN1C[C@@H](NC(=O)Nc2c(C)c(-c3cnc(N4CC[C@@H](N(C)C)C4)nc3)nn2-c2ccccc2)[C@H](c2ccnc(F)c2)O1` [Compound I-587], the IC50 is less than 100 nM. Turning to `COCCN1C[C@@H](NC(=O)Nc2c(C)c(-c3cnc(N4C[C@H]5C[C@@H]4CO5)nc3)nn2-c2ccccc2)[C@H](c2ccnc(F)c2)O1` [Compound I-590], the IC50 is less than 100 nM. Turning to `COCCN1C[C@@H](NC(=O)Nc2c(C)c(-c3cnc(N4C[C@@H]5C[C@H]4CO5)nc3)nn2-c2ccccc2)[C@H](c2ccnc(F)c2)O1` [Compound I-591], the half-maximal inhibitory concentration (IC50) was less than 100 nM. Same read-out and setting: the same measure for `COCCN1C[C@@H](NC(=O)Nc2c(C)c(-c3cnc(N4CCN(C)[C@H](C)C4)nc3)nn2-c2ccccc2)[C@H](c2ccnc(F)c2)O1` [Compound I-592]: less than 100 nM; for `COCCN1C[C@@H](NC(=O)Nc2c(C)c(-c3cnc(N4CCN(C)[C@@H](C)C4)nc3)nn2-c2ccccc2)[C@H](c2ccnc(F)c2)O1` [Compound I-593]: less than 100 nM.

Consider `COCCN1C[C@@H](NC(=O)Nc2c(C)c(-c3cnc(N4CCN(C)C[C@H]4C)nc3)nn2-c2ccccc2)[C@H](c2ccnc(F)c2)O1` [Compound I-594], for which the half-maximal inhibitory concentration (IC50) was less than 100 nM. The same measure, in the same setting: the figure for `CNC(=O)c1cc(-c2nn(-c3ccccc3)c(NC(=O)N[C@@H]3CN(CCOC)O[C@H]3c3ccc(F)c(F)c3)c2C)ccn1` [Compound I-595] is less than 100 nM; for `CCN1C[C@@H](NC(=O)Nc2c(C)c(OCCC3CCN(C(=O)OC(C)(C)C)C3)nn2-c2ccccc2)[C@H](c2ccc(F)c(F)c2)O1` (some centres unmarked) [Compound I-597] it is less than 100 nM; for `COCCN1C[C@@H](NC(=O)Nc2c(C)c(-c3cnc(N4CCN(C)CC4)nc3)nn2-c2ccccc2)[C@H](c2ccc(F)c(F)c2)O1` [Compound I-598] it is less than 100 nM. As for `CCN1C[C@@H](NC(=O)Nc2c(C)c(OCCC3CCNC3)nn2-c2ccccc2)[C@H](c2ccc(F)c(F)c2)O1` (some centres unmarked) [Compound I-599], the IC50 was less than 100 nM. On the same count and under the same terms, the figure for `COCCN1C[C@@H](NC(=O)Nc2c(C)c(OC3CN(C)C3)nn2-c2ccccc2)[C@H](c2ccc(F)c(F)c2)O1` [Compound I-600] is less than 100 nM; for `COCCN1C[C@@H](NC(=O)Nc2c(C)c(OC3CCN(C(=O)OC(C)(C)C)CC3)nn2-c2ccccc2)[C@H](c2ccc(F)c(F)c2)O1` [Compound I-601] it is less than 100 nM; for `COCCN1C[C@@H](NC(=O)Nc2c(C)c(OC3CCNCC3)nn2-c2ccccc2)[C@H](c2ccc(F)c(F)c2)O1` [Compound I-602] it is less than 100 nM.

`COCCN1C[C@@H](NC(=O)Nc2c(C)c(OC3CCN(C)CC3)nn2-c2ccccc2)[C@H](c2ccc(F)c(F)c2)O1` [Compound I-603]: the IC50 was less than 100 nM. Consider `CCN1CCC(Oc2nn(-c3ccccc3)c(NC(=O)N[C@@H]3CN(CCOC)O[C@H]3c3ccc(F)c(F)c3)c2C)CC1` [Compound I-604], for which the IC50 was less than 100 nM.

Staying with this test, now noted: human TrkA 1 nmol/L, ATP 500 μmol/L, 120 min at 37° C.; read-out: IC50 values (TrkA phosphorylation inhibition).
For `COCCN1C[C@@H](NC(=O)Nc2c(C)c(-c3cnc(COC)nc3)nn2-c2ccccc2)[C@H](c2ccc(F)c(F)c2)O1` [Compound I-508], the half-inhibitory concentration (IC50) stood at 1.1 nM.

With `COCCN1C[C@@H](NC(=O)Nc2c(C)c(-c3ccc(OC)nc3)nn2-c2ccccc2)[C@H](c2ccnc(F)c2)O1` [Compound I-509], the IC50 worked out at 1.3 nM. For the compound `CCN1C[C@@H](NC(=O)Nc2c(C)c(OCC3CCN(C)CC3)nn2-c2ccccc2)[C@H](c2ccc(F)c(F)c2)O1` [Compound I-536], the 50% inhibitory concentration (IC50) was determined as 4 nM. `COCCN1C[C@@H](NC(=O)Nc2c(C)c(OCCCN(C)C)nn2-c2ccccc2)[C@H](c2ccc(F)c(F)c2)O1` [Compound I-552]: the IC50 was found to be 1.7 nM. `COCCN1C[C@@H](NC(=O)Nc2c(C)c(-c3cnc(N4CC(OC)C4)nc3)nn2-c2ccccc2)[C@H](c2ccnc(F)c2)O1` [Compound I-555]: the IC50 amounted to 0.93 nM.
